The values below come from paper PMC10610505, “Synthesis and Biological Evaluation of Some New 3-Aryl-2-thioxo-2,3-dihydroquinazolin-4(1H)-ones and 3-Aryl-2-(benzylthio)quinazolin-4(3H)-ones as Antioxidants; COX-2, LDHA, α-Glucosidase and α-Amylase Inhibitors; and Anti-Colon Carcinoma and Apoptosis-Inducing Agents” (Pharmaceuticals, 2023).

Test [1] has as its system HCT-116 human colon carcinoma cells. The experiment in a line: Viability assay (LDH release), HCT-116. Format: cell-based. Particulars: for viability at 200 µg/mL: HCT-116, 48 h, read-out: Mean % of viable cells ± SD, HCT-116. The procedure, abridged:
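HCT-116 human colon carcinoma cells were cultured for 24 h at 37 °C in a humidified 5% CO2 incubator. Samples diluted in Dulbecco’s Modified Eagle’s Medium with 10% FBS were then added. Lactate dehydrogenase released from damaged cells was measured in supernatants by ELISA end-point reading at 550 nm. Controls were 0.1% Triton X-100 (positive) and assay medium alone (negative).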
Background: LDH leaks from cells whose membrane has failed.

A further test concerns Bax gene. Briefly: qRT-PCR expressional level of Bax gene. The format is cell-based, human. Particulars: 10 µg/mL, HCT-116 and LoVo cells, vs negative control. Here is the method:
Considering these facts, enhancing apoptosis has been extensively studied as a potential drug target in cancer therapy, therefore, in this study, we investigated the effects of the most cytotoxic compounds, 3a and 3f, (at 10 µg/mL, 24 h incubation) on the expressional levels of these apoptotic regulator genes (Bax and Bcl-2) using quantitative reverse transcription–polymerase chain reactions (qRT-PCR).
Briefly, in a 25 mL flask (1 × 10^6 cells/flask), the human colon cancer cell lines (HCT-116 and LoVo) were grown for 24 h. After replacing the culture media with a medium containing 1% FBS for 24 h, the cells were treated with 10 µg/mL of each tested compound in 2 mL of fresh medium containing 1% FBS, or 0.25% DMSO, which was used as the negative control. The cells were adherent cells and they were detached using trypsin after being washed with ice-cold phosphate-buffered saline (PBS).
Primers specific for the Bax, Bcl-2 and Caspase-3 genes were designed using the primer blast (https://www.ncbi.nlm.nih.gov/tools/primer-blast/ accessed on 9 January 2023) software. The primers were used in the RT-qPCR analysis to amplify fragments of 100–200 bp in length (Table 11).
The RNeasy Mini Kit (Qiagen, Hilden, Germany) was used to extract the total RNA. The RNA purity, quality and quantity were checked using a Nanodrop 8000 spectrophotometer (Thermo Fisher Scientific, USA). […]
Background: In qPCR the cycle at which signal appears reflects the starting amount.

Where [2] appears, read: Homo sapiens, HCT-116, from concentration–response curves.
The mark [3] stands for this setting: from concentration–response curves.

“And” between values parts separate entries of the source, which are not always exact repeats. Equal entries are not always repeated.

For `O=c1c2cc(Cl)ccc2[nH]c(=S)n1-c1ccc([N+](=O)[O-])cc1` [Compound 3f, 6-Chloro-3-(4-nitro-phenyl)-2-thioxo-2,3-dihydro-1H-quinazolin-4-one], the viability at 200 µg/mL in test [1] (Homo sapiens) stood at 4.67 ± 0.577%. Further, the IC50 (in general, the point on the concentration scale where inhibition reaches its midpoint) was 324 µM and 108 µg/mL in test [1] (setting [2]); 324 µM in test [1] (setting [3]). Further, the “Expression level of Bax gene” value in the test with Bax gene is recorded as “upregulate”.
With `O=c1c2cc(Cl)ccc2[nH]c(=S)n1-c1cccc(C(F)(F)F)c1` [Compound 3a, 6-Chloro-2-thioxo-3-(3-trifluoromethyl-phenyl)-2,3-dihydro-1H-quinazolin-4-one], the viability at 200 µg/mL in test [1] (Homo sapiens) stood at 26.8 ± 1.26%. In addition, the IC50 in test [1] (setting [2]) was 298 µM and 106 µg/mL; in test [1] (setting [3]), 298 µM. In addition, the “Expression level of Bax gene” value with Bax gene is recorded as “upregulate”.
